In publication PMC13242511, “Disrupting Notch signalling by a small molecule inhibiting dihydroorotate dehydrogenase activity” (Scientific Reports, 2026):
Where a SMILES comes first, the peptide text is derived from it. The star is where a group is joined. Cbz = O=C(OCc1ccccc1)*

Assays:
[1] = test system: Notch1 ICD-induced mouse model of T-ALL; set-up: method as in PMID 37648673; conditions: cited from earlier work
[2] = test system: mNotch1ΔE fused to an HiBiT tag; test: HiBit reporter assay; format: cell-based, mouse; conditions: 24 h, 14-point dose-response; Supplemental Fig. 8D,G
Method: The Notch1ΔE construct used to generate the Notch reporter cell line (see above) was first cloned in frame into the pBiT3.2-C [TK/HiBiT/Blast] Vector (Promega) and then stably introduced into HEK293T wild type cells, using Lipofectamine transfection, as described. Analogous to the Notch reporter cell line, Blasticidin was used as a selection marker (0.1 mg/ml) and stable cell lines with robust luciferase signals were generated. […] A clone (#D2) with an empty HiBit vector stably integrated was used as control.
20 µl containing 4,000 cells were seeded on 384-well pre-spotted compound plates (Greiner, cat #781080). Cells were incubated for 24 h and viability was determined using CellTiter-Fluor (Promega, cat # G6080), following the manufacturer’s instructions. Next, cells were subjected to the HiBit assay according to the manufacturer’s instructions (Promega, cat # N3030). Prior to cell lysis, the tissue culture plates were allowed to cool down to room temperate. Fluorescence and luminescence signals were recorded using a SpectraMax i3 (Molecular devices) and signals were read at different time-points to determine optimal signal stability. Cells cultivated only with DMSO were used as a reference to determine effects of compounds. MG132, Bafilomycin A1 and the GSI RO4929097 served as additional controls. Celastrol was used to determine the assay window, and a minimum of two technical replicates were measured per assay.

Notch signalling [3] = test: Notch reporter assay (12xCSL firefly luciferase / renilla luciferase, HEK293T Notch1ΔE reporter cell line clone #A1-11); format: cell-based; set-up: Confirmation screen: unit not given here; conditions: for inhibitor ratio in % of DMSO in 3 point DR: 3-point DR confirmation screen, Notch reporter assay
Summary of the method: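 Compounds at two-fold concentration in 10 µl medium were brought to one-fold by adding 10 µl holding 4000 Notch reporter cells (clone #A1-11) per well of a 384-well plate. After 24 h, Promega dual-GLO firefly and renilla luciferase were read on a SpectraMaxi3. Dose-response curves were fitted with a log(inhibitor) vs. response variable-slope model.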

γ-secretase complex = γ-secretase complex (Homo sapiens, UniProt P49768); test: APP-C99 counter assay (GSI reporter assay); format: cell-based; conditions: for 3p-DR in % of DMSO counter: APP-C99 counter assay
Summary of the method: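 Cells transfected with APP-C99 firefly luciferase reporter plus renilla normalization plasmid, seeded 24 h later onto compound plates and cultured 24 h. Dual luciferase read in triplicate per concentration; IC50 from variable-slope log(inhibitor) fit, with AUC also calculated from dose–response curves.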

Notch signalling [4] = test: Notch reporter assay (12xCSL firefly luciferase / renilla luciferase, HEK293T Notch1ΔE reporter cell line clone #A1-11); format: cell-based; conditions: 24 h, unit from Fig. 2 legend
Drosophila melanogaster = conditions: cited from earlier work
[5] = 10 µM, sheet conf vs counter 10 µM, same values as 3-point DR confirmation screen
[6] = 25 µM, Notch reporter 3-point dose-confirmation assay, sheet "conf vs counter 25 µM"
[7] = 10 µM, sheet conf vs counter 10 µM
[8] = 25 µM, sheet "conf vs counter 25 µM", same values given as % of DMSO in sheet "3p-DR in % of DMSO counter"

SMILES | outcome in Notch1 ICD-induced mouse model of T-ALL [1] | HiBiT luciferase signal [2] | inhibitor ratio in % of DMSO in 3 point DR (Notch signalling [3]; 10µM) | Confirmation screen (Notch signalling [3]; [5]) | inhibitor ratio in % of DMSO in 3 point DR (Notch signalling [3]; 25µM) | Confirmation screen (Notch signalling [3]; [6]) | inhibitor ratio in % of DMSO in 3 point DR (Notch signalling [3]; 1,25µM) | 3p-DR in % of DMSO counter (γ-secretase complex; 10µM) | Counter screen (Hek APP-C99) (γ-secretase complex; [7]) | 3p-DR in % of DMSO counter (γ-secretase complex; 25µM) | Counter screen (Hek APP-C99) (γ-secretase complex; [8]) | 3p-DR in % of DMSO counter (γ-secretase complex; 1,25µM) | Primary screen at 10 µM (Notch reporter signal) (Notch signalling [4]) | phenotype after chemical DHODH inhibition (Drosophila melanogaster)
Cc1c(-c2ccc(-c3ccccc3F)cc2)nc2ccc(F)cc2c1C(=O)O [brequinar] | curative |  |  |  |  |  |  |  |  |  |  |  |  | 
CO/C1=C\C(C)=C\[C@@H](C)[C@@H](O)[C@@H](C)C/C(C)=C/C=C/[C@H](OC)[C@@H]([C@@H](C)[C@@H](O)[C@H](C)[C@@]2(O)C[C@@H](O)[C@H](C)[C@@H](C(C)C)O2)OC1=O [Bafilomycin A1, reference compound] |  | increased the HiBiT signal |  |  |  |  |  |  |  |  |  |  |  | 
CC(C)C[C@@H](C=O)NC(=O)[C@H](CC(C)C)NC(=O)[C@H](CC(C)C)NC(=O)OCc1ccccc1 [MG132, reference compound] (Cbz-Leu-Leu-Leu-aldehyde) |  | increased the HiBiT signal |  |  |  |  |  |  |  |  |  |  |  | 
CCC(C)(C)c1ccc(S(=O)(=O)Nc2ccc3ncsc3c2)cc1 [CBK043490] |  |  | 33.5 % of DMSO | 33.5 | 42.6 % of DMSO | 42.6 | 42.1 % of DMSO | 45.0 % of DMSO | 45.0 | 59.5 % of DMSO | 59.5 | 53.8 % of DMSO | 46.9 % of DMSO | 
COc1ccc2cc(C(=O)N3CCC(c4ccncc4)CC3)[nH]c2c1 [CBK283799] |  |  | 56.5 % of DMSO | 56.5 | 73.6 % of DMSO | 73.6 | 82.5 % of DMSO | 49.5 % of DMSO | 49.5 | 70.8 % of DMSO | 70.8 | 72.9 % of DMSO | 60.5 % of DMSO | 
Cc1c(C(=O)O)[nH]c(=O)[nH]c1=O [5-methyl orotate] |  |  |  |  |  |  |  |  |  |  |  |  |  | phenocopied Notch mutations
FC(F)(F)CCN1CCC2(CC1)NCCc1c2[nH]c2ccc(Cl)cc12 [CBK039331] |  |  | 79.3 % of DMSO | 79.3 | 73.3 % of DMSO | 73.3 | 98.4 % of DMSO | 111.0 % of DMSO | 111.0 | 121.8 % of DMSO | 121.7 | 81.3 % of DMSO | 64.3 % of DMSO | 
